Measurements as given in patent publication US9090576B2, “2-substituted-p-quinone derivatives for treatment of oxidative stress diseases” (Edison Pharmaceuticals, Inc., priority 2008, dated 2015).
pEC50: −log10 of the molar value.

What was measured:
Format in all cases: cell-based
[1] = tested on: human dermal fibroblasts from LHON patients; test: Rescue of BSO-stressed fibroblasts from LHON patients (screen as Example A); details: Fibroblast, BSO-stressed LHON fibroblasts (GM03858), less than about 150 nM, read-out: EC50, protection against LHON
How it was run: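 LHON patient fibroblasts (Coriell GM03858) at 3,000 cells/well were pre-treated overnight with compounds serially diluted from a 150 μM master solution. Surviving cells were stained with 1.2 μM Calcein AM for 50-70 min at RT and read by fluorescence (485/525 nm), giving EC50.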

[2] = tested on: human dermal fibroblasts from Huntington's patients; test: Rescue of BSO-stressed fibroblasts from Huntington's patients (screen as Example A); details: Fibroblast, BSO-stressed Huntington's fibroblasts (GM 04281), less than about 150 nM, read-out: EC50, protection against Huntington's
How it was run: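 Coriell Huntington's line GM 04281 plated at 3,000 cells/well and attached overnight at 37 °C. Survival was read by Calcein AM (1.2 μM, 50-70 min, RT) fluorescence at 485/525 nm, giving EC50.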

[3] = tested on: human dermal fibroblasts from CoQ10 deficient patients; test: Rescue of BSO-stressed fibroblasts from CoQ10 deficient patients (screen similar to Example A); details: Fibroblast, BSO-stressed fibroblasts from CoQ10 deficient patients harboring a CoQ2 mutation, less than about 150 nM, read-out: EC50, protection against CoQ10 deficiency
Method: (§1) A culture with FRDA fibroblasts was started from a 1 ml vial with approximately 500,000 cells stored in liquid nitrogen. Cells were propagated in 10 cm cell culture dishes by splitting every third day in a ratio of 1:3 until nine plates were available. Once confluent, fibroblasts were harvested. For 54 micro titer plates (96 well-MTP) a total of 14.3 million cells (passage eight) were re-suspended in 480 ml medium, corresponding to 100 μl medium with 3,000 cells/well. The remaining cells were distributed in 10 cm cell culture plates (500,000 cells/plate) for propagation. The plates were incubated overnight at 37° C. in an atmosphere with 95% humidity and 5% CO2 to allow attachment of the cells to the culture plate.
(§2) MTP medium (243 μl) was added to a well of the microtiter plate. The test compounds were unfrozen, and 7.5 μl of a 5 mM stock solution was dissolved in the well containing 243 μl medium, resulting in a 150 μM master solution. Serial dilutions from the master solution were made. The period between the single dilution steps was kept as short as possible (generally less than 1 second).
(§3) Plates were kept overnight in the cell culture incubator. The next day, 10 μl of a 10 mM BSO solution were added to the wells, resulting in a 1 mM final BSO concentration. Forty-eight hours later, three plates were examined under a phase-contrast microscope to verify that the cells in the 0% control (wells E1-H1) were clearly dead. The medium from all plates was discarded, and the remaining liquid was removed by gently tapping the plate inversed onto a paper towel.
(§4) 100 μl of PBS containing 1.2 μM Calcein AM were then added to each well. The plates were incubated for 50-70 minutes at room temperature. After that time the PBS was discarded, the plate gently tapped on a paper towel and fluorescence (excitation/emission wavelengths of 485 nm and 525 nm, respectively) was read on a Gemini fluorescence reader. Data was imported into Microsoft Excel (EXCEL is a registered trademark of Microsoft Corporation for a spreadsheet program) and used to calculate the EC50 concentration for each compound.
Compounds of the invention were tested using a screen similar to the one described in Example A, but substituting FRDA cells with cells obtained from CoQ10 deficient patients harboring a CoQ2 mutation. The compounds were tested for their ability to rescue human dermal fibroblasts from CoQ10 deficient patients from oxidative stress.

[4] = tested on: Human dermal fibroblasts from Friedreich's Ataxia patients; test: Rescue of BSO-stressed FRDA fibroblasts (Calcein AM viability); details: BSO-stressed FRDA fibroblasts (GM04078), less than about 150 nM, read-out: EC50, protection against FRDA
How it was run: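 Patient FRDA fibroblasts (GM04078) seeded at 3,000 cells/well, given serially diluted compound from a 150 μM master solution, then stressed next day with 1 mM BSO.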

[5] = tested on: human dermal fibroblasts from Parkinson's Disease patients; test: Rescue of BSO-stressed fibroblasts from Parkinson's Disease patients (screen as Example A); details: Fibroblast, BSO-stressed Parkinson's Disease fibroblasts (AG20439), less than about 150 nM, read-out: EC50, protection against PD
Method: as §1, §2, §3, §4
Compounds of the invention were screened as described in Example A, but substituting FRDA cells with Parkinson's Disease (PD) cells obtained from the Coriell Cell Repositories (Camden, N.J.; repository number AG20439). The compounds were tested for their ability to rescue human dermal fibroblasts from Parkinson's Disease patients from oxidative stress.

Measured: pEC50

CC1=C(C)C(=O)C(CCNC(=O)N(C)Cc2ccc(Cl)cc2)=C(C)C1=O [1-(4-chlorobenzyl)-1-methyl-3-(2-(2,4,5-trimethyl-3,6-dioxocyclohexa-1,4-dienyl)ethyl)urea]
> 6.82: [1] | [2] | [3]

COc1ccc(C2(C(=O)NCCC3=C(C)C(=O)C(C)=C(C)C3=O)CC2)cc1 [1-(4-methoxyphenyl)-N-(2-(2,4,5-trimethyl-3,6-dioxocyclohexa-1,4-dienyl)ethyl)cyclopropanecarboxamide]
> 6.82: [3] | [4]

CC1=C(C)C(=O)C(CCNC(=O)C2(c3ccccc3)CC2)=C(C)C1=O [1-phenyl-N-(2-(2,4,5-trimethyl-3,6-dioxocyclohexa-1,4-dienyl)ethyl)cyclopropanecarboxamide]
> 6.82: [1] | [3] | [4]

COc1ccccc1CC(=O)NCCC1=C(C)C(=O)C(C)=C(C)C1=O [2-(2-methoxyphenyl)-N-(2-(2,4,5-trimethyl-3,6-dioxocyclohexa-1,4-dienyl)ethyl)acetamide]
> 6.82: [3] | [4]

CC1=C(C)C(=O)C(CCNC(=O)C(C)c2ccc(Cl)cc2)=C(C)C1=O (centres unmarked) [2-(4-chlorophenyl)-N-(2-(2,4,5-trimethyl-3,6-dioxocyclohexa-1,4-dienyl)ethyl)propanamide]
> 6.82: [2] | [3] | [4]

CC1=C(C)C(=O)C(CCNC(=O)C(C)c2ccc(F)cc2)=C(C)C1=O (centres unmarked) [2-(4-fluorophenyl)-N-(2-(2,4,5-trimethyl-3,6-dioxocyclohexa-1,4-dienyl)ethyl)propanamide]
> 6.82: [3] | [4]

CC1=C(C)C(=O)C(CCNC(=O)Cc2cccc3ccccc23)=C(C)C1=O [2-(naphthalen-1-yl)-N-(2-(2,4,5-trimethyl-3,6-dioxocyclohexa-1,4-dienyl)ethyl)acetamide]
> 6.82: [3] | [4]

CC1=C(C)C(=O)C(CCNC(=O)CCc2ccc(F)cc2)=C(C)C1=O [3-(4-fluorophenyl)-N-(2-(2,4,5-trimethyl-3,6-dioxocyclohexa-1,4-dienyl)ethyl)propanamide]
> 6.82: [3] | [4]

CC1=C(C)C(=O)C(CCNC(=O)c2ccc(C#N)cc2)=C(C)C1=O [4-cyano-N-(2-(2,4,5-trimethyl-3,6-dioxocyclohexa-1,4-dienyl)ethyl)benzamide]
> 6.82: [1] | [3] | [4]

COc1ccc(S(=O)(=O)NCCC2=C(C)C(=O)C(C)=C(C)C2=O)cc1 [4-methoxy-N-(2-(2,4,5-trimethyl-3,6-dioxocyclohexa-1,4-dienyl)ethyl)benzenesulfonamide]
not listed: [3]
> 6.82: all other assays above

CC1=C(C)C(=O)C(CCCC(=O)Nc2cccc(Cl)c2Cl)=C(C)C1=O [N-(2,3-dichlorophenyl)-4-(2,4,5-trimethyl-3,6-dioxocyclohexa-1,4-dienyl)butanamide]
not listed: [3]
> 6.82: all other assays above

CC1=C(C)C(=O)C(CCCC(=O)Nc2cc(Cl)ccc2Cl)=C(C)C1=O [N-(2,5-dichlorophenyl)-4-(2,4,5-trimethyl-3,6-dioxocyclohexa-1,4-dienyl)butanamide]
not listed: [3]
> 6.82: all other assays above

CC1=C(C)C(=O)C(CCCC(=O)Nc2cc(F)ccc2F)=C(C)C1=O [N-(2,5-difluorophenyl)-4-(2,4,5-trimethyl-3,6-dioxocyclohexa-1,4-dienyl)butanamide]
not listed: [3]
> 6.82: all other assays above

CC1=C(C)C(=O)C(CCCC(=O)Nc2c(Cl)cccc2Cl)=C(C)C1=O [N-(2,6-dichlorophenyl)-4-(2,4,5-trimethyl-3,6-dioxocyclohexa-1,4-dienyl)butanamide]
not listed: [3]
> 6.82: all other assays above

CC1=C(C)C(=O)C(CCCC(=O)Nc2c(F)cccc2F)=C(C)C1=O [N-(2,6-difluorophenyl)-4-(2,4,5-trimethyl-3,6-dioxocyclohexa-1,4-dienyl)butanamide]
not listed: [3]
> 6.82: all other assays above

CC1=C(C)C(=O)C(CCCC(=O)Nc2ccc(Cl)c(Cl)c2)=C(C)C1=O [N-(3,4-dichlorophenyl)-4-(2,4,5-trimethyl-3,6-dioxocyclohexa-1,4-dienyl)butanamide]
not listed: [3]
> 6.82: all other assays above

CC1=C(C)C(=O)C(CCCC(=O)Nc2ccc(F)c(F)c2)=C(C)C1=O [N-(3,4-difluorophenyl)-4-(2,4,5-trimethyl-3,6-dioxocyclohexa-1,4-dienyl)butanamide]
not listed: [3]
> 6.82: all other assays above

CC1=C(C)C(=O)C(CCCC(=O)Nc2cc(F)cc(F)c2)=C(C)C1=O [N-(3,5-difluorophenyl)-4-(2,4,5-trimethyl-3,6-dioxocyclohexa-1,4-dienyl)butanamide]
not listed: [3]
> 6.82: all other assays above

COc1ccc(NC(=O)CCCC2=C(C)C(=O)C(C)=C(C)C2=O)cc1 [N-(4-methoxyphenyl)-4-(2,4,5-trimethyl-3,6-dioxocyclohexa-1,4-dienyl)butanamide]
not listed: [3]
> 6.82: all other assays above

CC1=C(C)C(=O)C(CCCC(=O)Nc2ccccn2)=C(C)C1=O [N-(pyridin-2-yl)-4-(2,4,5-trimethyl-3,6-dioxocyclohexa-1,4-dienyl)butanamide]
not listed: [3]
> 6.82: all other assays above

CC1=C(C)C(=O)C(CCCC(=O)Nc2ccncc2)=C(C)C1=O [N-(pyridin-4-yl)-4-(2,4,5-trimethyl-3,6-dioxocyclohexa-1,4-dienyl)butanamide]
not listed: [3]
> 6.82: all other assays above

CC1=C(C)C(=O)C(CCC(C)C(=O)NCc2ccccc2)=C(C)C1=O (centres unmarked) [N-benzyl-2-methyl-4-(2,4,5-trimethyl-3,6-dioxocyclohexa-1,4-dienyl)butanamide]
not listed: [3]
> 6.82: all other assays above
